Results published in US12582617B2, “Methods for treating cancer” (RADIUS PHARMACEUTICALS, INC., priority 2015, dated 2026).
Counter-ions that a name gives are not always drawn.

Test: Phase 1 dose escalation study: safety, treatment related AEs
Assay type: in vivo
Method: The subjects were 40-75 years old with BMI of 18.0-30 kg/m^2. Subjects having evidence of clinically relevant pathology, increased risk of stroke or of history venous thromboembolic events, or use of concomitant medication less than 14 days prior to admission to clinical research center (paracetamol allowed up to 3 days prior) were excluded.
The subjects were treated with placebo or at least one dose p.o., q.d. after a light breakfast for 7 days at dose levels of 200 mg, 500 mg, 750 mg and 1000 mg, respectively.

[1] = 200 to 1000 mg p.o., q.d., 7 days

SMILES: CCNCCc1ccc(CN(CC)c2cc(OC)ccc2[C@@H]2CCc3cc(O)ccc3C2)cc1 [RAD1901, (6R)-6-(2-(N-(4-(2-(ethylamino)ethyl)benzyl)-N-ethylamino)-4-methoxyphenyl)-5,6,7,8-tetrahydronaphthalen-2-ol dihydrochloride]
- Abdominal distension (treatment related AE) (750 mg, Gr3): 0 n(%)
- Abdominal pain (treatment related AE) (750 mg, Gr3): 0 n(%)
- Diarrhoea (treatment related AE) (750 mg, Gr3): 0 n(%)
- Dizziness (treatment related AE) (750 mg, Gr3): 0 n(%)
- Dyspepsia (treatment related AE) (750 mg, Gr3): 0 n(%)
- Dysphagia (treatment related AE) (750 mg, Gr3): 0 n(%)
- Flatulance (treatment related AE) (750 mg, Gr3): 0 n(%)
- Headache (treatment related AE) (750 mg, Gr3): 0 n(%)
- Hiccups (treatment related AE) (750 mg, Gr3): 0 n(%)
- Hot flush (treatment related AE) (750 mg, Gr3): 0 n(%)
- Myalgia (treatment related AE) (750 mg, Gr3): 0 n(%)
- Nausea (treatment related AE) (750 mg, Gr3): 0 n(%)
- Odynophagia (treatment related AE) (750 mg, Gr3): 0 n(%)
- Oesophageal pain (treatment related AE) (750 mg, Gr3): 0 n(%)
- Salivary hypersecretion (treatment related AE) (750 mg, Gr3): 0 n(%)
- Sensation of a foreign body (treatment related AE) (750 mg, Gr3): 0 n(%)
- Vomiting (treatment related AE) (750 mg, Gr3): 0 n(%)
- Abdominal discomfort (treatment related AE) (1000 mg, Gr1): 0 n(%)
- Abdominal distension (treatment related AE) (1000 mg, Gr1): 2 (29) n(%)
- Abdominal pain (treatment related AE) (1000 mg, Gr1): 1 (14) n(%)
- Diarrhoea (treatment related AE) (1000 mg, Gr1): 3 (43) n(%)
- Dizziness (treatment related AE) (1000 mg, Gr1): 1 (14) n(%)
- Dyspepsia (treatment related AE) (1000 mg, Gr1): 1 (14) n(%)
- Dysphagia (treatment related AE) (1000 mg, Gr1): 0 n(%)
- Flatulance (treatment related AE) (1000 mg, Gr1): 0 n(%)
- Headache (treatment related AE) (1000 mg, Gr1): 2 (29) n(%)
- Hiccups (treatment related AE) (1000 mg, Gr1): 2 (29) n(%)
- Hot flush (treatment related AE) (1000 mg, Gr1): 1 (14) n(%)
- Myalgia (treatment related AE) (1000 mg, Gr1): 0 n(%)
- Nausea (treatment related AE) (1000 mg, Gr1): 4 (57) n(%)
- Odynophagia (treatment related AE) (1000 mg, Gr1): 1 (14) n(%)
- Oesophageal pain (treatment related AE) (1000 mg, Gr1): 1 (14) n(%)
- Salivary hypersecretion (treatment related AE) (1000 mg, Gr1): 2 (29) n(%)
- Sensation of a foreign body (treatment related AE) (1000 mg, Gr1): 4 (57) n(%)
- Vomiting (treatment related AE) (1000 mg, Gr1): 0 n(%)
- Abdominal discomfort (treatment related AE) (1000 mg, Gr2): 0 n(%)
- Abdominal distension (treatment related AE) (1000 mg, Gr2): 0 n(%)
- Abdominal pain (treatment related AE) (1000 mg, Gr2): 1 n(%)
- Diarrhoea (treatment related AE) (1000 mg, Gr2): 1 n(%)
- Dizziness (treatment related AE) (1000 mg, Gr2): 0 n(%)
- Dyspepsia (treatment related AE) (1000 mg, Gr2): 1 n(%)
- Dysphagia (treatment related AE) (1000 mg, Gr2): 0 n(%)
- Flatulance (treatment related AE) (1000 mg, Gr2): 0 n(%)
- Headache (treatment related AE) (1000 mg, Gr2): 0 n(%)
- Hiccups (treatment related AE) (1000 mg, Gr2): 0 n(%)
- Hot flush (treatment related AE) (1000 mg, Gr2): 0 n(%)
- Myalgia (treatment related AE) (1000 mg, Gr2): 0 n(%)
- Nausea (treatment related AE) (1000 mg, Gr2): 2 n(%)
- Odynophagia (treatment related AE) (1000 mg, Gr2): 1 n(%)
- Oesophageal pain (treatment related AE) (1000 mg, Gr2): 1 n(%)
- Salivary hypersecretion (treatment related AE) (1000 mg, Gr2): 0 n(%)
- Sensation of a foreign body (treatment related AE) (1000 mg, Gr2): 0 n(%)
- Vomiting (treatment related AE) (1000 mg, Gr2): 3 n(%)
- Abdominal discomfort (treatment related AE) (1000 mg, Gr3): 0 n(%)
- Abdominal distension (treatment related AE) (1000 mg, Gr3): 0 n(%)
- Abdominal pain (treatment related AE) (1000 mg, Gr3): 0 n(%)
- Diarrhoea (treatment related AE) (1000 mg, Gr3): 0 n(%)
- Dizziness (treatment related AE) (1000 mg, Gr3): 0 n(%)
- Dyspepsia (treatment related AE) (1000 mg, Gr3): 0 n(%)
- Dysphagia (treatment related AE) (1000 mg, Gr3): 0 n(%)
- Flatulance (treatment related AE) (1000 mg, Gr3): 0 n(%)
- Headache (treatment related AE) (1000 mg, Gr3): 0 n(%)
- Hiccups (treatment related AE) (1000 mg, Gr3): 0 n(%)
- Hot flush (treatment related AE) (1000 mg, Gr3): 0 n(%)
- Myalgia (treatment related AE) (1000 mg, Gr3): 0 n(%)
- Nausea (treatment related AE) (1000 mg, Gr3): 0 n(%)
- Odynophagia (treatment related AE) (1000 mg, Gr3): 0 n(%)
- Oesophageal pain (treatment related AE) (1000 mg, Gr3): 1 n(%)
- Salivary hypersecretion (treatment related AE) (1000 mg, Gr3): 0 n(%)
- Sensation of a foreign body (treatment related AE) (1000 mg, Gr3): 0 n(%)
- Vomiting (treatment related AE) (1000 mg, Gr3): 0 n(%)
- dose limiting toxicities (in words) [1]: No dose limiting toxicities (DLT) were observed
- maximum tolerated dose (MTD) (in words) [1]: not established
- Abdominal discomfort (treatment related AE) (Total Active, Gr1): 4 n(%)
- Abdominal distension (treatment related AE) (Total Active, Gr1): 5 n(%)
- Abdominal pain (treatment related AE) (Total Active, Gr1): 7 n(%)
- Diarrhoea (treatment related AE) (Total Active, Gr1): 6 n(%)
- Dizziness (treatment related AE) (Total Active, Gr1): 5 n(%)
- Dyspepsia (treatment related AE) (Total Active, Gr1): 13 n(%)
- Dysphagia (treatment related AE) (Total Active, Gr1): 4 n(%)
- Flatulance (treatment related AE) (Total Active, Gr1): 5 n(%)
- Headache (treatment related AE) (Total Active, Gr1): 9 n(%)
- Hiccups (treatment related AE) (Total Active, Gr1): 9 n(%)
- Hot flush (treatment related AE) (Total Active, Gr1): 11 n(%)
- Myalgia (treatment related AE) (Total Active, Gr1): 3 n(%)
- Nausea (treatment related AE) (Total Active, Gr1): 14 n(%)
- Odynophagia (treatment related AE) (Total Active, Gr1): 4 n(%)
- Oesophageal pain (treatment related AE) (Total Active, Gr1): 3 n(%)
- Salivary hypersecretion (treatment related AE) (Total Active, Gr1): 8 n(%)
- Sensation of a foreign body (treatment related AE) (Total Active, Gr1): 7 n(%)
- Vomiting (treatment related AE) (Total Active, Gr1): 3 n(%)
- Abdominal discomfort (treatment related AE) (Total Active, Gr2): 1 n(%)
- Abdominal distension (treatment related AE) (Total Active, Gr2): 1 n(%)
- Abdominal pain (treatment related AE) (Total Active, Gr2): 3 n(%)
- Diarrhoea (treatment related AE) (Total Active, Gr2): 1 n(%)
- Dizziness (treatment related AE) (Total Active, Gr2): 0 n(%)
- Dyspepsia (treatment related AE) (Total Active, Gr2): 3 n(%)
- Dysphagia (treatment related AE) (Total Active, Gr2): 3 n(%)
- Flatulance (treatment related AE) (Total Active, Gr2): 0 n(%)
- Headache (treatment related AE) (Total Active, Gr2): 1 n(%)
- Hiccups (treatment related AE) (Total Active, Gr2): 0 n(%)
- Hot flush (treatment related AE) (Total Active, Gr2): 0 n(%)
- Myalgia (treatment related AE) (Total Active, Gr2): 2 n(%)
- Nausea (treatment related AE) (Total Active, Gr2): 5 n(%)
- Odynophagia (treatment related AE) (Total Active, Gr2): 2 n(%)
- Oesophageal pain (treatment related AE) (Total Active, Gr2): 6 n(%)
- Salivary hypersecretion (treatment related AE) (Total Active, Gr2): 0 n(%)
- Sensation of a foreign body (treatment related AE) (Total Active, Gr2): 0 n(%)
- Vomiting (treatment related AE) (Total Active, Gr2): 10 n(%)
- Abdominal discomfort (treatment related AE) (Total Active, Gr3): 0 n(%)
- Abdominal distension (treatment related AE) (Total Active, Gr3): 0 n(%)
- Abdominal pain (treatment related AE) (Total Active, Gr3): 0 n(%)
- Diarrhoea (treatment related AE) (Total Active, Gr3): 0 n(%)
- Dizziness (treatment related AE) (Total Active, Gr3): 0 n(%)
- Dyspepsia (treatment related AE) (Total Active, Gr3): 0 n(%)
- Dysphagia (treatment related AE) (Total Active, Gr3): 0 n(%)
- Flatulance (treatment related AE) (Total Active, Gr3): 0 n(%)
- Headache (treatment related AE) (Total Active, Gr3): 0 n(%)
- Hiccups (treatment related AE) (Total Active, Gr3): 0 n(%)
- Hot flush (treatment related AE) (Total Active, Gr3): 0 n(%)
- Myalgia (treatment related AE) (Total Active, Gr3): 0 n(%)
- Nausea (treatment related AE) (Total Active, Gr3): 0 n(%)
- Odynophagia (treatment related AE) (Total Active, Gr3): 0 n(%)
- Oesophageal pain (treatment related AE) (Total Active, Gr3): 1 n(%)
- Salivary hypersecretion (treatment related AE) (Total Active, Gr3): 0 n(%)
- Sensation of a foreign body (treatment related AE) (Total Active, Gr3): 0 n(%)
- Vomiting (treatment related AE) (Total Active, Gr3): 1 n(%)
- Abdominal discomfort (treatment related AE) (Total TEAE, All): 5 (11)
- Abdominal distension (treatment related AE) (Total TEAE, All): 6 (14)
- Abdominal pain (treatment related AE) (Total TEAE, All): 10 (23)
- Diarrhoea (treatment related AE) (Total TEAE, All): 7 (16)
- Dizziness (treatment related AE) (Total TEAE, All): 5 (11)
- Dyspepsia (treatment related AE) (Total TEAE, All): 16 (36)
- Dysphagia (treatment related AE) (Total TEAE, All): 7 (16)
- Flatulance (treatment related AE) (Total TEAE, All): 5 (11)
- Headache (treatment related AE) (Total TEAE, All): 10 (23)
- Hiccups (treatment related AE) (Total TEAE, All): 9 (20)
- Hot flush (treatment related AE) (Total TEAE, All): 11 (25)
- Myalgia (treatment related AE) (Total TEAE, All): 5 (11)
- Nausea (treatment related AE) (Total TEAE, All): 19 (43)
- Odynophagia (treatment related AE) (Total TEAE, All): 6 (14)
- Oesophageal pain (treatment related AE) (Total TEAE, All): 10 (23)
- Salivary hypersecretion (treatment related AE) (Total TEAE, All): 8 (18)
- Sensation of a foreign body (treatment related AE) (Total TEAE, All): 7 (16)
- Vomiting (treatment related AE) (Total TEAE, All): 14 (32)
